Experimental data published in patent US20260250318A1, “COMPOSITIONS AND METHODS FOR CROSSING THE BLOOD BRAIN BARRIER” (VOYAGER THERAPEUTICS, INC., priority 2022, published 2026).

Test system: brains, heart, liver, muscle, and DRG of the NHPs
Assay: Maturation of TTM-001 and TTM-002 capsids, NGS enrichment in NHP tissues
Type: in vivo
Description: This Example describes maturation of the AAV9 capsid variants, TTM-001 (SEQ ID NO: 981 (amino acid) and 983 (DNA), comprising SEQ ID NO: 941 (encoded by SEQ ID NO: 942)) and TTM-002 (SEQ ID NO: 982 (amino acid) and 984 (DNA), comprising SEQ ID NO: […] (encoded by SEQ ID NO: 944)) in NHPs to further enhance their transduction and biodistribution in the central nervous system as well as other tissues, and evolve the AAV capsid variants to provide further cross-species compatibility. Two approaches were used to mature the TTM-001 and TTM-002 capsid sequences in order to randomize and mutate within and around the peptide insert comprised within loop IV of the capsid variant. […] In the first maturation approach, sets of three contiguous amino acids were randomized across the mutagenesis region in the TTM-001 and TTM-002 sequences, which spanned from position 450 to position 466, numbered according to SEQ ID NO: 981 and 982. In the second maturation approach, mutagenic primers were used to introduce point mutations at a low frequency, scattered across the mutagenesis region in the TTM-001 and TTM-002 sequences ranging from position 449 to position 466, numbered according to SEQ ID NO: 981 and 982. AAV capsid variants arising from each maturation approach for TTM-001 and TTM-002 were pooled together, for subsequent testing and characterization in NHPs.
The library of pooled matured AAV capsid variants generated using the first maturation approach and the second maturation approach for the TTM-001 and TTM-002 AAV capsid variants were injected into two NHPs. […] Following RNA recovery and RT-PCR amplification, a systematic NGS enrichment analysis was performed to calculate the fold enrichment ratio relative to an AAV9 control, and the peptides comprised within the variants were identified.
Following the RNA recovery and NGS analysis from the second maturation approach, approximately 680,000 capsid variants were identified. The 680,000 matured capsid variants were then filtered based on samples with a raw virus count greater than 10 and a coefficient of variance (CV) of less than 1, which was calculated for each peptide across the brain samples taken from the two NHPs. […] Using this filtering criteria, this led to approximately 64,000 matured capsid variants.

[1] = NHP DRG, NGS, relative to AAV9 control
[2] = NHP brain, NGS, relative to AAV9 control
[3] = NHP heart, NGS, relative to AAV9 control
[4] = NHP liver DNA, NGS, relative to AAV9 control
[5] = NHP liver RNA, NGS, TTM-001 and TTM-002 matured AAV capsid variants, relative to AAV9 control
[6] = NHP muscle, NGS, relative to AAV9 control
[7] = NGS fold-enrichment, DRG, NHP, relative to AAV9
[8] = NGS fold-enrichment, brain, NHP, relative to AAV9
[9] = NGS fold-enrichment, heart, NHP, relative to AAV9
[10] = NGS fold-enrichment, liver DNA, NHP, relative to AAV9
[11] = NGS fold-enrichment, liver RNA, NHP, relative to AAV9
[12] = NGS fold-enrichment, muscle, NHP, relative to AAV9

Sequence | Fold Enrichment relative to AAV9, DRG (NHP) [1] [fold] | Fold Enrichment relative to AAV9, Brain (NHP) [2] [fold] | Fold Enrichment relative to AAV9, Heart (NHP) [3] [fold] | Fold Enrichment relative to AAV9, Liver DNA (NHP) [4] [fold] | Fold Enrichment relative to AAV9, Liver RNA (NHP) [5] [fold] | Fold Enrichment relative to AAV9, Muscle (NHP) [6] [fold] | Fold Enrichment relative to AAV9, DRG (NHP) [7] [fold] | Fold Enrichment relative to AAV9, Brain (NHP) [8] [fold] | Fold Enrichment relative to AAV9, Heart (NHP) [9] [fold] | Fold Enrichment relative to AAV9, Liver DNA (NHP) [10] [fold] | Fold Enrichment relative to AAV9, Liver RNA (NHP) [11] [fold] | Fold Enrichment relative to AAV9, Muscle (NHP) [12] [fold]
KTINGSGSPHSKAQYVRT | 0.000 | 0.000 | 0.000 | 3.275 | 12.239 | 0.000 |  |  |  |  |  | 
KTINRQFSPHSKAQNQQT |  |  |  |  |  |  | 0.000 | 0.000 | 0.000 | 4.480 | 10.275 | 0.000
KTINGSGSPHSLWKNQQT | 0.000 | 0.000 | 0.000 | 4.010 | 45.796 | 0.000 |  |  |  |  |  | 
KTINGSGSPHSVFENQQT |  |  |  |  |  |  | 0.000 | 0.000 | 0.000 | 0.224 | 10.218 | 0.000
KTINGSGSPHVYHQNQQT | 0.000 | 0.000 | 0.000 | 1.733 | 14.770 | 0.000 |  |  |  |  |  | 
KTINGSGSPHSKRNYQQT | 0.000 | 0.000 | 0.000 | 5.528 | 12.781 | 0.000 |  |  |  |  |  | 
KTINALRSPHSKAQNQQT | 0.000 | 0.000 | 0.000 | 1.655 | 20.053 | 0.000 |  |  |  |  |  | 
KTINGRRSPHMKAQNQQT | 0.000 | 0.000 | 0.000 | 3.510 | 12.136 | 0.000 |  |  |  |  |  | 
KTINGSGSPHSKRSYQQT | 0.000 | 0.000 | 0.000 | 2.116 | 28.973 | 0.000 |  |  |  |  |  | 
KWLTGSGSPHSKAQNQQT (peptide inserted in AAV capsid) | 0.000 | 0.364 | 0.000 | 2.388 | 26.975 | 2578.486 |  |  |  |  |  | 
KTINGSGSPHSKYFMQQT | 0.000 | 0.000 | 0.000 | 2.993 | 57.350 | 0.000 |  |  |  |  |  | 
KTQRKSGSPHSKAQNQQT | 0.000 | 0.000 | 0.000 | 1.439 | 119.659 | 0.000 |  |  |  |  |  | 
KTINGSGSPHSPPDNQQT | 0.000 | 0.000 | 0.000 | 0.033 | 12.973 | 0.000 |  |  |  |  |  | 
KTINGSGSPHSLPYNQQT | 0.000 | 0.000 | 0.000 | 2.048 | 14.792 | 0.000 |  |  |  |  |  | 
KTINGSGSPHSFTCNQQT | 0.000 | 0.000 | 0.000 | 2.155 | 63.936 | 271.289 |  |  |  |  |  | 
KTINRYSSPHSKAQNQQT |  |  |  |  |  |  | 0.000 | 0.000 | 0.000 | 1.544 | 10.926 | 0.000
KTINGSGSPHSKAQMQIT | 0.000 | 0.000 | 0.000 | 0.371 | 13.990 | 0.000 |  |  |  |  |  | 
KTINGSGSPHSYYSNQQT |  |  |  |  |  |  | 0.000 | 0.000 | 0.000 | 2.856 | 10.680 | 0.000
KTINGSGSPHVPWQNQQT | 0.000 | 0.000 | 0.000 | 3.435 | 25.294 | 0.000 |  |  |  |  |  | 
KTINSCFSPHSKAQNQQT | 0.000 | 0.000 | 0.000 | 1.016 | 11.847 | 0.000 |  |  |  |  |  | 
